What was measured:
[1] = tested on: IL-6 secretion in senescent cells; test: IL-6 ELISA on conditioned media of IR-induced senescent cells treated with COX-2/ALOX5 inhibitors; type: cell-based, human; conditions: SEN(IR) IMR-90, inhibitor for 10 days
Experimental: (§1) Human fetal lung fibroblasts (IMR-90) were cultured in Dulbecco's modified eagle medium (DMEM) supplemented with 10% FBS and penicillin/streptomycin. LL 29 (AnHa) cells were obtained from the ATCC and growth to confluence using the ATCC protocol, but were subcultured as described for IMR-90 before initiation of all experiments. Quiescence was induced by replacing culture media with media containing 0.2% FBS. MCF-7 and MDA-MB-231 breast cancer cells were cultured in RPMI supplemented with 10% FBS and penicillin/streptomycin. All cells were cultured at 3% O2, and used between 25 and 40 population doublings. All cells were mycoplasma free.
Senescence was induced by irradiation with 10 Gy of ionizing radiation. Non-senescent controls (proliferating or quiescent) were placed in the irradiator for an identical period of time without turning on the irradiator. Oncogene-induced senescence was induced via lentiviral overexpression of HRAS^V12, as described previously (Wiley et al. (2016) Cell Metab. 23: 303-314).
3×10^4 cells in 12-well plates were treated as indicated in the text, and cultured in 0.5-1 ml serum-free DMEM for 24 hr. CM were collected and clarified at 2,000×g for 10 min. Supernatants were transferred to a tube; cells were trypsinized and counted. CM (2.5 μl) were analyzed by bead-based ELISAs (AlphaLISA, Perkin-Elmer) as instructed by the manufacturer and normalized to cell number.

IMR-90 fibroblasts = type: cell-based, human
Experimental: as §1
RNA was extracted from cells or tissues using commercially available kits (Isolate II—Bioline for cells; Direct-zol—Zymo for tissues) according to the manufacturer's instructions. cDNA synthesis was performed using a High Capacity cDNA Reverse Transcription Kit (Thermo Fisher) according to the manufacturer's instructions. Quantitative PCR was performed on a LightCycler 480 II (Roche) using primers and probes designed for the Universal Probe Library. Primers and probes used for human transcripts were ACTB: 5′-CCAACCGCGAGAAGATGA (SEQ ID NO:1), 5′-TCCATCACGATGCCAGTG (SEQ ID NO:2), Probe #64; TUBA: 5′-cttcgtctccgccatcag (SEQ ID NO:3), 5′-ttgccaatctggacacca (SEQ ID NO:4), Probe #58; ALOX5: 5′-[…] (SEQ ID NO:5), 5′-[…] (SEQ ID NO:6), Probe #64; ALOX5AP: 5′-ggtctgcggggctacttt (SEQ ID NO:7), 5′-[…] (SEQ ID NO:8), Probe #18; ALOX12: 5′-[…] (SEQ ID NO:9), 5′-agccaggtcgtcaggag (SEQ ID NO:10), Probe #32; ALOX15: 5′-[…] (SEQ ID NO:11), 5′-[…] (SEQ ID NO:12), Probe #76; ALOX15B: 5′-[…] (SEQ ID NO:13), 5′-actgggaggcgaagaagg (SEQ ID NO:14), Probe #51; AKR1C1: 5′-catgcctgtcctgggattt (SEQ ID NO:15), 5′-[…] (SEQ ID NO:16), Probe #49; AKR1C2: 5′-ctatgcgcctgcagaggt (SEQ ID NO:17), 5′-[…] (SEQ ID NO:18), Probe #31; AKR1C3: 5′-[…] (SEQ ID NO:19), 5′-[…] (SEQ ID NO:20), Probe #78; CYSLTR2: 5′-[…] (SEQ ID NO:21), 5′-[…] (SEQ ID NO:22), Probe #18; DPEP1: 5′-gacgtcctgaggctggtg (SEQ ID NO:23), 5′-[…] (SEQ ID NO:24), Probe #9 (SEQ ID NO:25), ELOVL2: 5′-[…] (SEQ ID NO:26), 5′-[…] (SEQ ID NO:27), Probe #53; ELOVL4: 5′-catttggcccatggattc (SEQ ID NO:28), 5′-[…] (SEQ ID NO:29), Probe #31; ELOVL5: 5′-cccttccatgcgtccata (SEQ ID NO:30), 5′-[…] (SEQ ID NO:31), Probe #31; EPHX2: 5′-ttctgctggacaccctgaa (SEQ ID NO:32), 5′-[…] (SEQ ID NO:33), Probe #45; GPX4: 5′-ttcccgtgtaaccagttcg (SEQ ID NO:34), 5′-[…] (SEQ ID NO:35), Probe #36; LTA4H: 5′-ctgctctcacggtccagtc (SEQ ID NO:36), 5′-[…] (SEQ ID NO:37), Probe #64; LTBR2: 5′-[…] (SEQ ID NO:38), 5′-[…] (SEQ ID NO:39), Probe #33; LTC4S: 5′-[…] (SEQ ID NO:40), 5′-[…] (SEQ ID NO:41), Probe #18; PTGDS: 5′-[…] (SEQ ID NO:42), 5′-[…] (SEQ ID NO:43), Probe #36; PTGES: 5′-agagatgcctgcccacag (SEQ ID NO:44), 5′-tggccaccacgtacatctt (SEQ ID NO:45), Probe #4; PTGES2: 5′-[…] (SEQ ID NO:46), 5′-[…] (SEQ ID NO:47), Probe #49; PTGES3 (SEQ ID NO:48), 5′-[…] (SEQ ID NO:49), 5′-[…] (SEQ ID NO:50), Probe #48; PTGIS: 5′-[…] (SEQ ID NO:51), 5′-[…] (SEQ ID NO:52), Probe #45; PTGR1: 5′-atgatggggcagcaagtg (SEQ ID NO:53), 5′-cccatcagaaatggagtgc (SEQ ID NO:54), Probe #64; PTGS1: 5′-[…] (SEQ ID NO:55), 5′-gtggtggtccatgttcctg (SEQ ID NO:56), Probe #81; PTGS2: 5′-gatccccagggctcaaac (SEQ ID NO:57), 5′-[…] (SEQ ID NO:58), Probe #61; TBXAS1: 5′-[…] (SEQ ID NO:59), 5′-tgcctcccgtgtgaatct (SEQ ID NO:60), Probe #73; AREG: 5′-[…] (SEQ ID NO:61), 5′-[…] (SEQ ID NO:62), Probe #73; CCL2: 5′-AGTCTCTGCCGCCCTTCT (SEQ ID NO:63), 5′-GTGACTGGGGCATTGATTG (SEQ ID NO:64), Probe #40; CCL27: 5′-[…] (SEQ ID NO:65), 5′-gctgggtggcagtaggaat (SEQ ID NO:66), Probe #18; CXCL1: 5′-[…] (SEQ ID NO:67), 5′-[…] (SEQ ID NO:68), Probe #52; HGF: 5′-[…] (SEQ ID NO:69), 5′-[…]

For `CS(=O)(=O)c1ccc(-c2noc(C(F)(F)F)c2-c2ccccc2)cc1` [CAY-10404], the “lowered IL-6 secretion in senescent cells” value [1] was about 70%, the “number of cells following irradiation” value (IMR-90 fibroblasts; 5 Gy IR, 10 days) was “significantly increased” and the “cell number relative to DMSO-treated SEN(IR) cells” value (IMR-90 fibroblasts; SEN(IR) cells counted for IL-6 ELISA normalization) was “increase in cell number”.

Source: US20200371122A1, “BIOMARKER FOR SENESCENT CELLS” (Buck Institute for Research on Aging, priority 2017, published 2020)
